Target: ULK1 (Homo sapiens (Human), UniProt O75385)
Experiment: ULK1 inhibition assay (Table 1)
Type: biochemical
Conditions: * = tested as a mixture of regioisomers

ULK1, sequence (O75385 whole entry, species assumed): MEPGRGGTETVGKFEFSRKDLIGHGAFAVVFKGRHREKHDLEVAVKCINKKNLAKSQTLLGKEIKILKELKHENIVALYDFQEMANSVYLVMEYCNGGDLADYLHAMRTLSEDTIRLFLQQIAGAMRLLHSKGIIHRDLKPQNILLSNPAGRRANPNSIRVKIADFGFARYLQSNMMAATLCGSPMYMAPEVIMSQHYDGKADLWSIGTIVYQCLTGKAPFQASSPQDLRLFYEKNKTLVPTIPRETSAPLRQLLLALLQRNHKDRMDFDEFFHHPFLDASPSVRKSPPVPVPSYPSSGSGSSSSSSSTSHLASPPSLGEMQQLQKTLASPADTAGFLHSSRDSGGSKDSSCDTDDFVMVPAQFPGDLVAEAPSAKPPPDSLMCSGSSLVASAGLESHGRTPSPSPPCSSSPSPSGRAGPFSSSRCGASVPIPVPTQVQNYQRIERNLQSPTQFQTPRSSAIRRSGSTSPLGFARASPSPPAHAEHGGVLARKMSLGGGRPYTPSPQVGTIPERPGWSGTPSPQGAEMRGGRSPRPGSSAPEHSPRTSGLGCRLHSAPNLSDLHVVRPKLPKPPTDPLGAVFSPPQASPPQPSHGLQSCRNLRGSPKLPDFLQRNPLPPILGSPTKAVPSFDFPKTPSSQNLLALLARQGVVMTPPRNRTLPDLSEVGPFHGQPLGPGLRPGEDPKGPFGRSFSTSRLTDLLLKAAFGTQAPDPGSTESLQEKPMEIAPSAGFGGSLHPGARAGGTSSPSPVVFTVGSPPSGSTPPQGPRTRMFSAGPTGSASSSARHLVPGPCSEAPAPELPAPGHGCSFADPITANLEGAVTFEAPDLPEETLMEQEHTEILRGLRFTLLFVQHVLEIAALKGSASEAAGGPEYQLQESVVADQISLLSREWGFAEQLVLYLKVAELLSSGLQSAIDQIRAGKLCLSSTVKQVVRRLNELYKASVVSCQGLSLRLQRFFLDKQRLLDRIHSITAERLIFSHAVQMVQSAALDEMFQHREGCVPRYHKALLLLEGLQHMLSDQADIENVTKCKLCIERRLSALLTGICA

`FC(F)(F)c1cnc(Nc2cnc3[nH]ccc3c2)nc1NC1CC1` [152a, N^4-cyclopropyl-N^2-(1H-pyrrolo[2,3-b]pyridin-5-yl)-5-(trifluoromethyl)pyrimidine-2,4-diamine] and `FC(F)(F)c1cnc(Nc2cnc3[nH]ccc3c2)nc1NC1CCC1` [161a, N^4-cyclobutyl-N^2-(1H-pyrrolo[2,3-b]pyridin-5-yl)-5-(trifluoromethyl)pyrimidine-2,4-diamine] cannot be ordered by IC50: under 200 nM for the first, under 200 nM for the second.

First: FC(F)(F)c1cnc(NC2CC2)nc1Nc1cnc2[nH]ccc2c1 [152b, N^2-cyclopropyl-N^4-(1H-pyrrolo[2,3-b]pyridin-5-yl)-5-(trifluoromethyl)pyrimidine-2,4-diamine]
Second: FC(F)(F)c1cnc(NC2CCC2)nc1Nc1cnc2[nH]ccc2c1 [161b, N^2-cyclobutyl-N^4-(1H-pyrrolo[2,3-b]pyridin-5-yl)-5-(trifluoromethyl)pyrimidine-2,4-diamine]
The IC50 of the first is higher: 200 to 2000 nM for the first, under 200 nM for the second.

`FC(F)(F)c1cnc(Nc2ccc3c(c2)OCCO3)nc1NC1CC1` [158a, N^4-cyclopropyl-N^2-(2,3-dihydrobenzo[b][1,4]dioxin-6-yl)-5-(trifluoromethyl)pyrimidine-2,4-diamine] and `FC(F)(F)c1cnc(NC2CC2)nc1Nc1ccc2c(c1)OCCO2` [158b, N^2-cyclopropyl-N^4-(2,3-dihydrobenzo[b][1,4]dioxin-6-yl)-5-(trifluoromethyl)pyrimidine-2,4-diamine] cannot be ordered by IC50: under 200 nM for the first, under 200 nM for the second.

Compared with `O=C1CCc2cc(Nc3ncc(C(F)(F)F)c(NC4CCCC4)n3)ccc2N1` [160a, 6-((4-(cyclopentylamino)-5-(trifluoromethyl)pyrimidin-2-yl)amino)-3,4-dihydroquinolin-2(1H)-one], `O=C1CCc2cc(Nc3nc(NC4CCCC4)ncc3C(F)(F)F)ccc2N1` [160b, 6-((2-(cyclopentylamino)-5-(trifluoromethyl)pyrimidin-4-yl)amino)-3,4-dihydroquinolin-2(1H)-one] is higher in IC50: under 200 nM for the first, 200 to 2000 nM for the second. The first is the more potent here.

`FC(F)(F)c1cnc(NC2Cc3ccccc3C2)nc1Nc1ccc2c(c1)OCO2` [163a, N^4-(benzo[d][1,3]dioxol-5-yl)-N^2-(2,3-dihydro-1H-inden-2-yl)-5-(trifluoromethyl)pyrimidine-2,4-diamine] and `FC(F)(F)c1cnc(Nc2ccc3c(c2)OCO3)nc1NC1Cc2ccccc2C1` [163b, N^2-(benzo [d] [1,3]dioxol-5-yl)-N^4-(2,3-dihydro-1H-inden-2-yl)-5-(trifluoromethyl)pyrimidine-2,4-diamine] cannot be ordered by IC50: over 2000 nM for the first, over 2000 nM for the second.

`FC(F)(F)c1cnc(N2CCCC2)nc1Nc1ccc2c(c1)OCO2` [164a, N-(benzo[d][1,3]dioxol-5-yl)-2-(pyrrolidin-1-yl)-5-(trifluoromethyl)pyrimidin-4-amine] and `FC(F)(F)c1cnc(N2CCC2)nc1Nc1ccc2c(c1)OCO2` [166a, 2-(azetidin-1-yl)-N-(benzo[d][1,3]dioxol-5-yl)-5-(trifluoromethyl)pyrimidin-4-amine] cannot be ordered by IC50: over 2000 nM for the first, over 2000 nM for the second.

Compared with `FC(F)(F)c1cnc(Nc2ccc3c(c2)OCO3)nc1N1CCCC1` [164b, N-(benzo[d][1,3]dioxol-5-yl)-4-(pyrrolidin-1-yl)-5-(trifluoromethyl)pyrimidin-2-amine], `FC(F)(F)c1cnc(Nc2ccc3c(c2)OCO3)nc1N1CCC1` [166b, 4-(azetidin-1-yl)-N-(benzo[d][1,3]dioxol-5-yl)-5-(trifluoromethyl)pyrimidin-2-amine] is lower in IC50: 200 to 2000 nM for the first, under 200 nM for the second. The second is the more potent here.

`Nc1ncc(C(F)(F)F)c(Nc2ccc3c(c2)OCO3)n1` [165a, N^4-(benzo[d][1,3]dioxol-5-yl)-5-(trifluoromethyl)pyrimidine-2,4-diamine] and `Nc1nc(Nc2ccc3c(c2)OCO3)ncc1C(F)(F)F` [165b, N^2-(benzo[d][1,3]dioxol-5-yl)-5-(trifluoromethyl)pyrimidine-2,4-diamine] fall in the same range of IC50: 200 to 2000 nM for the first, 200 to 2000 nM for the second.

With `FC(F)(F)c1cnc(NCC2CC2)nc1Nc1ccc2c(c1)OCO2` [167a, N^4-(benzo[d][1,3]dioxol-5-yl)-N^2-(cyclopropylmethyl)-5-(trifluoromethyl)pyrimidine-2,4-diamine] the IC50 was under 200 nM.
